Measurements: patent US20230226135A9, “ACETYLCHOLINE MODULATION OF IMMUNE FUNCTION” (BCell Solutions, Inc., priority 2019, published 2023)
Entries after “also recorded” stand apart in the source; their conditions may differ.

Legend:
[1] = Toxicity evaluation in CFA/Peptide/MLA study (survival, body weight change, spleen weight); format: in vivo, mice
Protocol: SUMMARY: A study was conducted to evaluate a potential alpha7 nAChR anti-inflammatory mechanism of the MKR-4 peptide, using the alpha7 nAChR antagonist methyllycaconitine (MLA). After enrollment, animals in Groups 2-4 were sensitized ID at the base of the tail with 0.1 mL FCA on Day 1. On Days 2, 3, 5 & 7 Groups were then dosed intraperitoneally (IP) with either: peptide and MLA in combination (2 mg/kg and 6 mg/kg, respectively); peptide (2 mg/kg) and MLA vehicle (saline) in combination; or peptide vehicle (saline) and MLA vehicle (saline). Animals were dosed once on Study Day 2 (MLA or MLA vehicle), and Days 3, 5 & 7 (Peptide or Peptide vehicle, MLA or MLA vehicle) as described in Table 2 below. Body weights were recorded on Study Days 0 & 8. Mice were euthanized for necropsy on Study Day 8, and serum and whole spleens were collected from all animals and sent to the sponsor for internal FACS analysis. Toxicity and Peptide mechanistic evaluation was based on absolute body weight change, spleen weights and sponsor FACS analysis (not included in report). […]
Statistical Analysis: Data for each animal were entered into Microsoft Excel and means and standard errors for each group were calculated. Test groups were compared to vehicle controls using a one-way analysis of variance (1-way ANOVA) with a Dunnett's post-hoc analysis for measured (parametric) data. […]

[2] = system: blood brain barrier (BBB); test: Intravital microscopy of BBB permeability and lymphocyte adhering/rolling in pial venules; format: in vivo, C57 BL/6J mice
Excerpt: Whether intranasal infection with Streptococcus pyogenes would induce blood-brain barrier permeability in C57 BL/6J mice by a TLR-dependent mechanism was examined. Immediately following craniotomy, mice were placed under an intravital microscope to study vascular permeability and leukocytes. Permeability of cerebral blood vessels was observed using FITC-dextran fluorescent dye and, tracing of leukocytes is observed by labeling such cells with Rhodamine-6G. Intranasal infection with Streptococcus pyogenes (gram positive) increased BBB permeability (FIG. 4) and the number of adherent or rolling lymphocytes (FIG. 4) within 24 hours post-infection, compared to saline treated controls.
Methods: To test the hypothesis that intranasal infection may increase BBB permeability, we exposed mice to GAS via intranasal infection with Streptococcus pyogenes (GAS). We assessed BBB permeability using intravital microscopy, and we characterized the immune response to GAS using flow cytometric analysis of nasal associated lymphoid tissue (NALT), spleen, and brain.
Intranasal infection: Isoflurane gas was employed to briefly anesthetize mice (1-2 minutes). Once anesthetized, 7.5 uL of streptococcal bacterial suspension (OD600=0.5-0.6) was placed on each nares (outer nostril) of mouse. Control mice received intranasal inoculation with vehicle (PBS). The droplets were inhaled into nasal sinuses. This small volume avoids inoculation of the lungs, but reproducibly results in colonization of nasal-associated lymphoid tissue (NALT, Park 2003; Wang 2010).
Intraperitoneal injection: The TLR 1/2 agonist, Pam-3-Cys (25 ug/mouse; Pam3CSK4, InvivoGen, San Diego Calif.) was intraperitoneally (right side) injected into mice 24 hours before intravital microscopy. P3C causes immune cell activation and polycolonal expansion of B-lymphocytes by Toll-Like receptor ligation (Newell 2010). Control mice received equal volume of vehicle (PBS) intraperitoneally.
MHC class II-targeted proprietary peptide (TPP, Elim Biopharmaceuticals Inc., Hayward Calif.; also see Newell 2010) was administered intraperitoneally (5 ug/mouse, left side), sometimes in conjunction with P3C (right side). TPP was dissolved in DMSO for a final concentration of 2.5% DMSO in PBS. Control mice received vehicle (2.5% DMSO in PBS) intraperitoneally.
Preparation of Mice: Mice were anesthetized with an (i.p.) injection of 50% urethane (Sigma-Aldrich, U2500) in PBS ([…]) and maintained on heating pad. Anesthetic plane was assessed throughout preparation and experiments, by response to toe pinch. If needed, urethane supplement was given at 10% of original dose volume. To prepare mice tails for intravenous (i.v.) dye injection we maintained anesthetized mice on a heating pad for 10-15 minutes, and then briskly wiped tails (toward tail-end) with 70% ethanol wipes to remove scales/hair and increase vasodilation. Immediately following tail wiping, Fluorescein dextran 10 kDa (10 mg/mL, Sigma-Aldrich, FD10S) was administered (2 uL/g mouse) via right lateral tail vein and, Rhodamine 6G (0.2 mg/mL, Sigma-Aldrich, 83697) was administered (1.6 uL/g mouse) via left lateral tail vein. When needed, tail was wiped multiple times to ensure clear visualization of tail veins. Following successful (i.v.) injection of dyes, mice underwent craniotomy.
Craniotomy: A craniotomy (removal of a small area of skull) was performed to expose the cerebrum and allow imaging of cerebral microvasculature (specifically pial vessels of pia mater). First, an incision across the midline of the scalp was made to expose the right parietal bone. The skull was then carefully marked with a waterproof marker, designating the area, 1 mm posterior from the Bregma and 4 mm lateral from the midline, to be removed (craniotomy diameter: 2.5 mm). Next, the craniotomy was performed with a drill ensuring the dura mater was not cut. […]

splenic B cells = test: CFA-sensitized mice treated with Peptide with or without MLA, FACS of splenic B cells; format: in vivo
Protocol: SUMMARY: A study was conducted to evaluate a potential alpha7 nAChR anti-inflammatory mechanism of the MKR-4 peptide, using the alpha7 nAChR antagonist methyllycaconitine (MLA). After enrollment, animals in Groups 2-4 were sensitized ID at the base of the tail with 0.1 mL FCA on Day 1. On Days 2, 3, 5 & 7 Groups were then dosed intraperitoneally (IP) with either: peptide and MLA in combination (2 mg/kg and 6 mg/kg, respectively); peptide (2 mg/kg) and MLA vehicle (saline) in combination; or peptide vehicle (saline) and MLA vehicle (saline). Animals were dosed once on Study Day 2 (MLA or MLA vehicle), and Days 3, 5 & 7 (Peptide or Peptide vehicle, MLA or MLA vehicle) as described in Table 2 below. Body weights were recorded on Study Days 0 & 8. Mice were euthanized for necropsy on Study Day 8, and serum and whole spleens were collected from all animals and sent to the sponsor for internal FACS analysis. Toxicity and Peptide mechanistic evaluation was based on absolute body weight change, spleen weights and sponsor FACS analysis (not included in report).
Antibodies and Flow Cytometry. Single cell suspensions were made of tissues or cells harvested from culture and stained with the following monoclonal antibodies: a monoclonal antibody directed against mouse alpha 7 nicotinic acetylcholine receptor (alpha 7 nAChR) (Santa Cruz Biotechnology); anti-mouse MHC Class II (M5114), and anti-mouse CLIP 15G4, Santa Cruz. Following staining, cells were analyzed comparing each level of staining to the appropriate isotype control on a Beckman Coulter Cytoflex benchtop flow cytometer. Data was analyzed using FlowJo software (Tree Star Inc.).
Experimental Design: On Study Day 0, mice were weighed and randomized by body weight into treatment groups. Following randomization, on Study Day 1, Groups 2-4 were sensitized ID at the base of the tail with 0.1 mL of FCA. When MLA and Peptide (FRIMAVLAS (SEQ ID NO: 389))—or their vehicles—were dosed on the same day, the MLA antagonist or vehicle was dosed 1 hour before the Peptide or its vehicle.
On Study Day 8, mice were anesthetized with Isoflurane (VetOne, Cat #502017) and bled to exsanguination followed by cervical dislocation for necropsy and tissue collection.

[3] = TPP 5 ug/mouse i.p., 24 hours, listed as TPP

Sequence: FRIMAVLAS [CAP, α7nAChR agonist]
- survival to study termination ([1]; Peptide 2 mg/kg IP Days 3, 5, 7, with or without MLA): All mice survived
- group body weight change differences and spleen weight differences ([1]; Peptide 2 mg/kg IP, with or without MLA 6 mg/kg, CFA mice): none of the group body weight change differences or spleen weight differences were significant
- P3C-induced lymphocyte rolling ([2]; TPP 5 ug/mouse i.p. with P3C, 24 hours): reduced
- P3C-induced lymphocyte adhering ([2]; TPP 5 ug/mouse i.p. with P3C, 24 hours, listed as TPP): reduced; also recorded: significantly reversed
- streptococcal infection-induced lymphocyte adhering [2, 3]: significantly reversed
- streptococcal infection-induced lymphocyte rolling [2, 3]: reversed; also recorded: reduced
- size of adherent cells ([2]; TPP in infected or P3C treated mice): did not attenuate
- percentage of splenic B cells (splenic B cells; CFA treated and Peptide treated (2 mg/kg IP), vehicle 49.8%, CFA 50.1%): 34.4%
- number of CLIP+ B cells (splenic B cells; CFA treated mice, Peptide 2 mg/kg IP): reduction
